Results taken from paper PMC10970734, “Identification of an Intravenous Injectable NK1 Receptor Antagonist for Use in Traumatic Brain Injury” (International Journal of Molecular Sciences, 2024).
Where two headings read alike, the source gives them in different places.

Tests used:
[1] = target: Adenosine A2A (Homo sapiens, UniProt P29274); test: Cerep selectivity profiling, receptor antagonism; format: biochemical
Description: (§1) The pharmacological specificity of EUC-001 was assessed using the commercially available selectivity profiling services provided by Cerep (Celle l’Evescault, France). Initially, the activity of EUC-001, at a fixed concentration of 10 μM, was evaluated in a range of assays to assess pharmacological selectivity relative to other cell-surface receptors, ion channels and transport proteins. Where any significant binding was detected, further assays were performed to quantify potential non-selective activity. […] In terms of this non-specific activity, the IC50s are approximately 3.6 log units greater than that required for NK1R antagonism.
(§2) The pharmacological specificity of EUC-001 was assessed using the commercially available selectivity profiling services provided by Cerep (Celle l’Evescault, France). For initial screens, the binding of EUC-001 (synthesized by Hoffmann-La Roche, Basel, Switzerland) at a fixed concentration of 10 μM was evaluated in a range of assays to assess pharmacological selectivity relative to other cell-surface receptors, ion channels and transport proteins.
(§3) For agonist activity, results are expressed as a percentage of the control agonist response induced by the selective NK1R agonist [Sar^9, Met(O2)^11]-substance P (100 nM) for a range of concentrations of EUC-001. Antagonist activity is expressed as a percentage change in the response induced by 3 nM [Sar^9, Met(O2)^11]-SP (R&D systems) across a range of concentrations of EUC-001. The EC50 values (concentration producing a half-maximal specific response) and IC50 values (concentration causing a half-maximal inhibition of the control specific agonist response) were determined by non-linear regression analysis of the concentration–response curves generated with mean replicate values using Hill equation curve fitting (Y = D + [(A − D)/(1 + (C/C50)nH)], where Y = specific response, D = minimum specific response, A = maximum specific response, C = compound concentration, and C50 = EC50 or IC50, and nH = slope factor). This analysis was performed using custom software developed at Cerep and validated by comparison with data generated by the commercial software SigmaPlot® 4.0 for Windows® (SPSS Inc., Chicago, IL, USA). For the antagonists, the apparent dissociation constants (KB) were calculated using the modified Cheng Prusoff equation (KB = IC50/(1 + (A/EC50A)), where A = concentration of reference agonist in the assay, and EC50A = EC50 value of the reference agonist).

[2] = target: Dopamine D1 (Homo sapiens, UniProt P21728); test: Cerep selectivity profiling, receptor antagonism; format: biochemical
Description: as §1, §2, §3

[3] = target: Dopamine D2S (Homo sapiens, UniProt P14416); test: Cerep selectivity profiling, receptor antagonism; format: biochemical
Description: as §1, §2, §3

[4] = target: Histamine H2 (Homo sapiens, UniProt P25021); test: Cerep selectivity profiling, receptor antagonism; format: biochemical
Description: as §1, §2, §3

[5] = target: Melanocortin MC4 (Homo sapiens, UniProt P32245); test: Cerep selectivity profiling, receptor antagonism; format: biochemical
Description: as §1, §2, §3

[6] = target: T1, Muscarinic cholinergic M1 (Homo sapiens, UniProt P11229); test: Cerep selectivity profiling, receptor antagonism; format: biochemical
T1 sequence (P11229 1-460): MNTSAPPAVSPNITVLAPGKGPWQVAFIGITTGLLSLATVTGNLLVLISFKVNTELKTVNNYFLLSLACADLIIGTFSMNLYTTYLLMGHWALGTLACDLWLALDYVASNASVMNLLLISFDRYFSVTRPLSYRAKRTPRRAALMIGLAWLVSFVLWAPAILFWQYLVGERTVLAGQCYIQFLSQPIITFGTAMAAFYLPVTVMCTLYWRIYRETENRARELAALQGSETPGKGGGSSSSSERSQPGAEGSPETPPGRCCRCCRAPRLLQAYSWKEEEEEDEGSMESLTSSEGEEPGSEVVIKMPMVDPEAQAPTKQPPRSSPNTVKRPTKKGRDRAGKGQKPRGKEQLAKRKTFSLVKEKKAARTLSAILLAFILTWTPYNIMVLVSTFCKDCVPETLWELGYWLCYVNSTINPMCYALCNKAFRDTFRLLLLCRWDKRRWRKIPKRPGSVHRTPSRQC
Description: as §1, §2, §3

[7] = target: Muscarinic cholinergic M3 (Homo sapiens, UniProt P20309); test: Cerep selectivity profiling, receptor antagonism; format: biochemical
Description: as §1, §2, §3

[8] = target: Serotonin 5-HT1B (Homo sapiens, UniProt P28222); test: Cerep selectivity profiling, receptor antagonism; format: biochemical; conditions: Serotonin 5-HT1B antagonism
Description: as §1, §2, §3

[9] = target: Serotonin 5-HT2A (Homo sapiens, UniProt P28223); test: Cerep selectivity profiling, receptor antagonism; format: biochemical; conditions: Serotonin 5-HT2A antagonism
Description: as §1, §2, §3

[10] = target: Serotonin 5-HT5A (Homo sapiens, UniProt P47898); test: Cerep selectivity profiling, receptor antagonism; format: biochemical; conditions: Serotonin 5-HT5A antagonism
Description: as §1, §2, §3

[11] = target: T2, central NK1Rs (Meriones unguiculatus, UniProt Q5DUB1); test: Gerbil foot-tapping response induced by icv GR73632; format: in vivo, Mongolian Gerbils
T2 construct: antagonize central NK1Rs in vivo; from tissue; host or cells: brain of living Mongolian gerbils (in vivo)
Description: The ability of EUC-001 to antagonize central NK1Rs in vivo was examined using the gerbil foot-tapping response. The hind-foot-tapping response is a species-specific, CNS-mediated reaction that occurs in response to fear-evoking situations or aversive stimuli. The same, stereotyped response can be induced by the intracerebroventricular (icv) injection of a selective NK1 receptor agonist, such as GR73632 [59]. In turn, this NK1R-mediated response can be inhibited by centrally acting NK1R antagonists, as well as other anxiolytic agents. Animals were pretreated with a range of concentrations of EUC-001 2 h prior to the icv administration of the NK1R agonist, GR73632.
Female Mongolian Gerbils weighing 30–60 g were administered drug vehicle or a predetermined dose of EUC-001 either orally (po) at a volume of 5 mL/kg or intravenously (iv) at a volume of 1 mL/kg. […] Following recovery from the anesthesia (recovery of the righting reflex), a 5 min observation period was allocated per study and the amount of time gerbils spent tapping their hind paws was measured.

T2 sequence (Q5DUB1 whole entry): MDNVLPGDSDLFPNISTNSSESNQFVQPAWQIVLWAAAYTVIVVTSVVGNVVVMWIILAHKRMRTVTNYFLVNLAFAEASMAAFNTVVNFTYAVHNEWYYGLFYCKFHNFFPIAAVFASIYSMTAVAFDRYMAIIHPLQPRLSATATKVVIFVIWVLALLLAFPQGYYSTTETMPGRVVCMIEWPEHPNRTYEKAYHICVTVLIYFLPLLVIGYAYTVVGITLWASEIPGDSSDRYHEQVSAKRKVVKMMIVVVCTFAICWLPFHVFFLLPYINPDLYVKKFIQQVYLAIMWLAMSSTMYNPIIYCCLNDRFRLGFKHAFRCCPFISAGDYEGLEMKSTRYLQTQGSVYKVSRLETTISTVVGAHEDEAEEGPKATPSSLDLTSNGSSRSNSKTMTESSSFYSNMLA
Chain of Histamine H2 (P25021 whole entry): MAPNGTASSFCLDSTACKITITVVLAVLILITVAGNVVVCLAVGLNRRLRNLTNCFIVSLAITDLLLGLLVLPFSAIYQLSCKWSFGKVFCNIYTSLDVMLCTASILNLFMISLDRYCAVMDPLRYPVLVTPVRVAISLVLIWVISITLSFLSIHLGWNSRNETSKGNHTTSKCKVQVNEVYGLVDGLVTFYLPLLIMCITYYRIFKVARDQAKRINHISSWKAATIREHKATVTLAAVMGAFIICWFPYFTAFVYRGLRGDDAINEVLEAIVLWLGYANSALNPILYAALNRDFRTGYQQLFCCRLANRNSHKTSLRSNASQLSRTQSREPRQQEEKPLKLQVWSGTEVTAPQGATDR
Chain of Dopamine D1 (P21728 whole entry): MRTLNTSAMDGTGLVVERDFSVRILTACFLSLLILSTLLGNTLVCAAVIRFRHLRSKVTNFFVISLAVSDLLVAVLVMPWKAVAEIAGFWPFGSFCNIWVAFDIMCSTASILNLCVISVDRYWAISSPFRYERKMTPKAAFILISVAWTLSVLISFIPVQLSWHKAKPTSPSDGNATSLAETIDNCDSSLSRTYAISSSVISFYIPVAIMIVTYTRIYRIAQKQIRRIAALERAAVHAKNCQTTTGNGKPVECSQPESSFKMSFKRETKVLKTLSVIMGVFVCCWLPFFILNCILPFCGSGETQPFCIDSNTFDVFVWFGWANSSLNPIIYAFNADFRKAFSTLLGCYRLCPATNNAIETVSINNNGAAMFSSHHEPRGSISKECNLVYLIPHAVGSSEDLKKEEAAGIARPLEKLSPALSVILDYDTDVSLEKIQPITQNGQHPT
Chain of Dopamine D2S (P14416 1-414 isoform P14416-2): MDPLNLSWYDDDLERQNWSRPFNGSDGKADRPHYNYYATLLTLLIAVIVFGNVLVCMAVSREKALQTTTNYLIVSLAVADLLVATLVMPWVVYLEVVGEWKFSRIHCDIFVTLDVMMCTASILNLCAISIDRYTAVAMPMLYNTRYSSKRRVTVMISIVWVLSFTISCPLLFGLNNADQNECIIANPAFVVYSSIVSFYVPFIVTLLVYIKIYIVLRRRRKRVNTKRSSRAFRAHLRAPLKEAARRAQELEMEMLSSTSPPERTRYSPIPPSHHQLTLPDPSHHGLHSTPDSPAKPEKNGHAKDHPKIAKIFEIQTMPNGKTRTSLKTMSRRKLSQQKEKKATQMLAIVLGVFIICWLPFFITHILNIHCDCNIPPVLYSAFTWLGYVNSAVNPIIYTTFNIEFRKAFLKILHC
Chain of Serotonin 5-HT2A (P28223 whole entry): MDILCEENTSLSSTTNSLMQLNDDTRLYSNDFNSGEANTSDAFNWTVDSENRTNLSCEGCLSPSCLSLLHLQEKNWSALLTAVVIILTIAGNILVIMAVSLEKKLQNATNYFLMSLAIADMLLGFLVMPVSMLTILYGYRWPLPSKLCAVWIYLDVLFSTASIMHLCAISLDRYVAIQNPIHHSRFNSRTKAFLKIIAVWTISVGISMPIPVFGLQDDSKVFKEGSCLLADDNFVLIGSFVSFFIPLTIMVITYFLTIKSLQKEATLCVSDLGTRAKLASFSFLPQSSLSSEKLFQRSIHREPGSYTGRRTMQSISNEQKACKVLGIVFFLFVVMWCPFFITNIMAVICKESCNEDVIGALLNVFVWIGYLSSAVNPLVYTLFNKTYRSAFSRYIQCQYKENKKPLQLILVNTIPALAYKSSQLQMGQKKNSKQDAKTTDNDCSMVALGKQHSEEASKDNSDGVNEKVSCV
Chain of Serotonin 5-HT1B (P28222 whole entry): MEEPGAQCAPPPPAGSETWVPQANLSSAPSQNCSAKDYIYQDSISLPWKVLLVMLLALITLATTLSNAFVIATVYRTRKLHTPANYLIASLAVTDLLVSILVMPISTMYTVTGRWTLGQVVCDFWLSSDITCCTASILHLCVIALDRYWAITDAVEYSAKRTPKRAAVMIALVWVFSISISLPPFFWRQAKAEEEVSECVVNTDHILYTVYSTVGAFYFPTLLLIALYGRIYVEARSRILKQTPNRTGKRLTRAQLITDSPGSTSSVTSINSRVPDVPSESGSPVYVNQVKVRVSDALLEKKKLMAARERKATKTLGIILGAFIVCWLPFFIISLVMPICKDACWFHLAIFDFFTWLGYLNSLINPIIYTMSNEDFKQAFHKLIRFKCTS
Chain of Muscarinic cholinergic M3 (P20309 whole entry): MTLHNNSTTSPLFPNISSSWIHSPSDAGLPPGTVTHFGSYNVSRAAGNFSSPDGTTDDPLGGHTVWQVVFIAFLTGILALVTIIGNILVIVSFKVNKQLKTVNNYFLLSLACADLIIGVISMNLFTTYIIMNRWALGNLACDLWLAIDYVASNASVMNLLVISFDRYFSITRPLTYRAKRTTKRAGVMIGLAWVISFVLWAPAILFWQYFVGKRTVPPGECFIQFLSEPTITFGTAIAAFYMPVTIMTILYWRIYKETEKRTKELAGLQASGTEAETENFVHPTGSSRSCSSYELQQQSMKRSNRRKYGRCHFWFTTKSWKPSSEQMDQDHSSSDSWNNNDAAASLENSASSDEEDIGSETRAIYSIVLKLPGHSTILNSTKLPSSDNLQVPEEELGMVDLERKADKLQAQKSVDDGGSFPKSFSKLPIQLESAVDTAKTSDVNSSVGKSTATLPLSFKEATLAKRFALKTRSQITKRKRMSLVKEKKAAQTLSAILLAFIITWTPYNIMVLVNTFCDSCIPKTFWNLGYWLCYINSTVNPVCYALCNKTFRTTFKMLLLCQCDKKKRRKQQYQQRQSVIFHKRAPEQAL
Chain of Melanocortin MC4 (P32245 whole entry): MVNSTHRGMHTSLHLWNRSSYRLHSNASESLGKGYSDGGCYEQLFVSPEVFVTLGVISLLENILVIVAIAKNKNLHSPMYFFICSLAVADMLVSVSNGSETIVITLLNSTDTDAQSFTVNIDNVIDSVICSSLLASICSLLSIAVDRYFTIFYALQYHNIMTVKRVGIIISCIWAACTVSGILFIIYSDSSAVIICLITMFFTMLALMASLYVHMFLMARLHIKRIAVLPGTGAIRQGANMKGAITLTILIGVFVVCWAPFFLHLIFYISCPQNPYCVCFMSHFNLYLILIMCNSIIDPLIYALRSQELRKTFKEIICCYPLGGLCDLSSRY
Chain of Adenosine A2A (P29274 whole entry): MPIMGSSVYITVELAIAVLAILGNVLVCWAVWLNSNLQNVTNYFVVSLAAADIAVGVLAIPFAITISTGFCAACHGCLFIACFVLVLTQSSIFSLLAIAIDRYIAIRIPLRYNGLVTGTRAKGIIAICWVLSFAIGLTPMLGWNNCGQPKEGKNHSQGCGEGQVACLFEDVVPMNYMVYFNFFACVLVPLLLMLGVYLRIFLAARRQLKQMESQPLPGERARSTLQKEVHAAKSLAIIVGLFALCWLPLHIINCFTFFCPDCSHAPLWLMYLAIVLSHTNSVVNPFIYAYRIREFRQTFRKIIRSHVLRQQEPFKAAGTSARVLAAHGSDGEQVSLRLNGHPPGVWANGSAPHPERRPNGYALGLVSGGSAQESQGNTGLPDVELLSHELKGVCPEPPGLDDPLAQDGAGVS
Chain of Serotonin 5-HT5A (P47898 whole entry): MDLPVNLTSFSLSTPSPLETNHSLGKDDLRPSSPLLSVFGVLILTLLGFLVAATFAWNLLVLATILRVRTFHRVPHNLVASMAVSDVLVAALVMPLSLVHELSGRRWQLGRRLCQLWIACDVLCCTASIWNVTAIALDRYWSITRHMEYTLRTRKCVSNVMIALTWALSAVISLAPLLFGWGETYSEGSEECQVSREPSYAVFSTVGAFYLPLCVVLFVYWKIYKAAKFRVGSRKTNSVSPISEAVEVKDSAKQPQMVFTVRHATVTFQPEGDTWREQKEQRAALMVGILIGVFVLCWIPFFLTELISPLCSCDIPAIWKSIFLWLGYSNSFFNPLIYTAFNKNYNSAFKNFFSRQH

Cc1ccccc1-c1cc(N2CCN(C)CC2)ncc1C(=O)N(C)Cc1cc(C(F)(F)F)cc(C(F)(F)F)c1 [EUC-001, N-(3,5-Bis-trifluoromethyl-benzyl)-N-methyl-6-(4-methyl-piperazine-1-yl)-4-o-tolyl-nicotinamide]
IC50 [1]: 30 µM | IC50 [2]: 16 µM | IC50 (M) [3]: Not calculable | IC50 [4]: 16 µM | IC50 [5]: 13 µM | IC50 [6]: 3.3 µM | IC50 [7]: 3.3 µM | IC50 [8]: 6.1 µM | IC50 [9]: 15 µM | IC50 [10]: 4 µM | ED50 ([11]; iv administration, icv GR73632, read-out: IC50 dose, inhibition of foot-tapping response): 0.68 mg/kg | ED50 ([11]; oral administration (po), icv GR73632 3 pmol/5 µL, read-out: IC50 dose, inhibition of foot-tapping response): 0.89 mg/kg
